Measurements reported in patent US20190110993A1, “Solid Nanoparticle Formulation of Water Insoluble Pharmaceutical Substances with Reduced Ostwald Ripening” (priority 2017, published 2019).
≈ marks a conversion by molar mass, not a printed value. Where two headings read alike, the source gives them in different places.

Experiments:
[1] = cited from earlier work
[2] = in blood; cited from earlier work
human plasma proteins = details: cited from earlier work
[3] = test system: topoisomerase I purified from human and rodent tumor cell lines; details: more potent than irinotecan; cited from earlier work
[4] = after irinotecan; cited from earlier work
[5] = cited from earlier work; for solubility in the infusion solution: Jevtana infusion solution
[6] = test system: PANC-1 human pancreatic tumor xenografts; experiment: PANC-1 xenograft model; format: in vivo, athymic nude mice; details: PANC-1, 28 mg/kg once every third day for three treatments
Description: The anti-tumor efficacy studies of LBI-1103 in the MDA-MB-468 xenograft model as compared to Taxotere® and in the PANC-1 xenograft model as compared to Taxotere® and Gemcytabine were completed recently. The controls and LBI-1103 were injected intravenously once every other day for three treatments except for PANC-1 xenograft animals, where they were treated with Gemcitabine once every third day for three treatments.
In the PANC-1 xenograft models treated with LBI-1103, Taxotere® and Gemcitabine, a significant reduction in tumor weight was observed after the first day of dosing and this trend continued till the end of the study (FIG. 19).

CC(=O)O[C@H]1C(=O)[C@@]2(C)[C@H]([C@H](OC(=O)c3ccccc3)[C@]3(O)C[C@H](OC(=O)[C@H](O)[C@@H](NC(=O)c4ccccc4)c4ccccc4)C(C)=C1C3(C)C)[C@]1(OC(C)=O)CO[C@@H]1C[C@@H]2O [paclitaxel]
solubility in water [1]: about 0.4 mg/L

CCc1c2c(nc3ccc(O)cc13)-c1cc3c(c(=O)n1C2)COC(=O)[C@]3(O)CC [SN-38]
bound, mainly to albumin and lymphocytes, also erythrocytes and neutrophils [2]: at least 99% | plasma protein binding (bound) (human plasma proteins; SN-38: human plasma proteins, mainly albumin): approximately 95% | binding to plasma proteins (human plasma proteins; adults and pediatric patients, independent of serum albumin levels): 94-96% | potency as inhibitor of topoisomerase I relative to irinotecan [3]: approximately 1000 times | urinary excretion [4]: < 1%

CO[C@H]1C(=O)[C@]2(C)[C@@H](OC)C[C@H]3OC[C@@]3(OC(C)=O)[C@H]2[C@H](OC(=O)c2ccccc2)[C@]2(O)C[C@H](OC(=O)[C@H](O)[C@@H](NC(=O)OC(C)(C)C)c3ccccc3)C(C)=C1C2(C)C [cabazitaxel]
solubility in the infusion solution ([5]; 5° C.): 80 µg/mL (≈ 95.7 µM) | solubility in the infusion solution ([5]; 25° C.): 60 µg/mL (≈ 71.8 µM) | solubility in the premix ([5]; Jevtana premix solution (cabazitaxel concentration 10 mg/mL)): 3440 µg/mL (≈ 4120 µM) | solubility in water [1]: about 8 mg/L

Nc1ccn([C@@H]2O[C@H](CO)[C@@H](O)C2(F)F)c(=O)n1 [Gemcytabine, Gemcitabine]
tumor regression, mean tumor weight on last day of study compared to Day 1 [6]: 73%

CCc1c2c(nc3ccc(O[C@@H]4O[C@H](C(=O)O)[C@@H](O)[C@H](O)[C@H]4O)cc13)-c1cc3c(c(=O)n1C2)COC(=O)[C@]3(O)CC [SN-38 glucuronide]
urinary excretion [4]: 3%

C/C(=C\c1csc(C)n1)[C@@H]1C[C@@H]2O[C@]2(C)CCC[C@H](C)[C@H](O)[C@@H](C)C(=O)C(C)(C)[C@@H](O)CC(=O)N1 [Ixabepilone]
solubility in water [1]: about 3.5 mg/L

CCc1c2c(nc3ccc(OC(=O)N4CCC(N5CCCCC5)CC4)cc13)-c1cc3c(c(=O)n1C2)COC(=O)[C@]3(O)CC [irinotecan]
bound to and/or localized in erythrocytes [2]: 80%

CC(=O)O[C@@]12CO[C@@H]1C[C@H](O)[C@@]1(C)C(=O)[C@H](O)C3=C(C)[C@@H](OC(=O)[C@H](O)[C@@H](NC(=O)OC(C)(C)C)c4ccccc4)C[C@@](O)([C@@H](OC(=O)c4ccccc4)[C@H]21)C3(C)C [docetaxel]
solubility in water [1]: about 14 mg/L
